Results taken from patent US12336980B2, “Dosing regimen for a selective S1P1 receptor agonist” (Vanda Pharmaceuticals Inc., priority 2014, dated 2025).

Legend:
Type in all cases: in vivo, human
[1] = test system: healthy subjects; assay: 12-lead ECG, heart rate, PR interval and ECG abnormalities, cross-over up-titration study; conditions: for mean maximum change from baseline in HR (12-lead ECG): Day 2, 2 h post-dose; for mean maximum change from baseline in HR (12-lead ECG) / decrease in HR vs. baseline (12-lead ECG): mean±SD; for decrease in HR vs. baseline (12-lead ECG): Day 3, 2 h after administration; for time for HR to return to baseline values post-dose (12-lead ECG): Day 2; for occurrence of HR <45 bpm, events / occurrence of HR <45 bpm, subjects: any time during the regimen, 12-lead ECG; for occurrence of PR interval >210 ms, events / occurrence of PR interval >210 ms, subjects: during the course of the study; for occurrence of HR <45 bpm, HR decrease >20 bpm, PR interval ≥200 ms or PR increase >20 ms, events / occurrence of HR <45 bpm, HR decrease >20 bpm, PR interval ≥200 ms or PR increase >20 ms, subjects / percentage of subjects with at least one event (HR <45 bpm, HR decrease >20 bpm, PR ≥200 ms, PR increase >20 ms): first 12 hours on Day 2
Description: (§1) In a single-center, double-blind, placebo-controlled, randomized, two-way cross-over study, 32 healthy subjects (15 males) received placebo on Day 1 followed by multiple-dose administration of either ponesimod or placebo (ratio 3:1). Ponesimod was administered alternately using regimen A (incremental dose increase from 2 to 20 mg) or B (10 mg for 7 days followed by a single-dose administration of 20 mg). Cardiodynamic (Holter and 12-lead ECG), pharmacokinetic, pharmacodynamic (total lymphocyte count), and safety variables were assessed.
(§2) The enrolled subjects came to the study center for each treatment period on Day −2 and participated in a run-in (all study procedures performed without study drug administration) on Day −1. On Day 1, subjects were randomized to one of the two possible sequences of the two up-titration regimens A and B (ratio 1:1). On Day 1, all subjects received placebo; the first study drug administration (or its matching placebo) occurred on Day 2. Regimen A consisted of the novel up-titration regimen: ponesimod was administered once daily (o.d.) orally at a dose of 2 mg on Day 2 and Day 3, 3 mg on Day 4 and Day 5, 4 mg on Day 6 and Day 7, 5 mg on Day 8, 6 mg on Day 9, 7 mg on Day 10, 8 mg on Day 11, 9 mg on Day 12, 10 mg on Day 13 and Day 14, and 20 mg on Day 15. The reference regimen (regimen B) was based on previous studies (Olsson T. et al., Oral ponesimod in relapsing-remitting multiple sclerosis: a randomised phase II trial. J Neurol Neurosurg Psychiatry. 2014; 85 (11): 1198-1208; and Vaclavkova A. et al., Oral ponesimod in patients with chronic plaque psoriasis: a randomised, double-blind, placebo-controlled phase 2 trial. Lancet. 2014; 384 (9959): 2036-2045) and consisted of an o.d. oral administration of ponesimod at a dose of 10 mg for 7 days (i.e., from Day 2 to Day 8) and 20 mg on Day 9. From Day 10 to Day 15 subjects received o.d. the matching placebo. In the placebo group (1:1 sex ratio), subjects received placebo from Day 1 to Day 15. All treatments were administered at the same time in the morning (fasted condition) with approximately 240 mL of water.
Cardiodynamic endpoints were assessed using Holter and 12-lead ECG. The 24-h Holter recordings were performed on Day -1, Day 1, Day 2, Day 9, Day 13, and Day 15. The 12-h Holter recordings were performed on the other days. In addition, Holter data were used to estimate the area under the effect curve (AUEC) for HR. 12-lead ECGs were performed from Day −1 to Day 16 at pre-dose and 1, 2, 3, 4, 5, 6, 8, 10, and 12 h after study drug administration. An additional 12-lead ECG recording was performed at EOFP and EOS. Heart rate nadir, Emax (maximum decrease of mean hourly HR from baseline, which was defined as the mean of the time-matched assessments measured on Day −1 and Day 1 pre-dose), and occurrence of values of interest (HR <45 bpm, HR decrease from baseline >20 bpm, and PR interval increase from baseline >20 ms), and AV-blocks (i.e., […]) were obtained with 12-lead ECG.
Cardiodynamic and pharmacodynamic data are expressed as mean±SD. Repeated measure one-way ANOVAs followed by Tukey's multiple-comparisons tests were used to perform inter-group (i.e., placebo vs. regimen A vs. regimen B) comparisons. Student's t-tests were employed to perform intra-group (baseline vs. treatment) comparisons. Differences were considered to be statistically significant at p <0.05. SAS® version 9.2 (SAS Institute, Cary, NC, USA) was used for the statistical analysis and descriptive statistics of clinical data.

[2] = test system: healthy subjects; assay: Safety and tolerability, adverse events
Description: as §1, §2
(§3) Safety and tolerability were evaluated by monitoring adverse events (AEs), vital signs measurements (supine blood pressure), pulmonary function tests (PFTs; i.e., FEV1 and FVC), clinical laboratory, physical, and neurological examinations. Recording of blood pressure was performed at the same time-points as 12-lead ECG.

[3] = test system: healthy subjects; assay: Pulmonary function tests and clinical laboratory (hematology); conditions: hemoglobin, hematocrit, red blood cell count, basophils, eosinophils, neutrophils, monocytes, platelet count
Description: as §3

[4] = Regimen A (N = 24), Day 2 to EOFP or EOS visit
[5] = Regimen B (N = 24), Day 2 to EOFP or EOS visit

CCC/N=C1\S/C(=C\c2ccc(OC[C@H](O)CO)c(Cl)c2)C(=O)N1c1ccccc1C [ponesimod, (R)-5-[3-chloro-4-(2,3-dihydroxy-propoxy)-benz[Z]ylidene]-2-([Z]-propylimino)-3-o-tolyl-thiazolidin-4-one]
mean maximum change from baseline in HR (12-lead ECG) ([1]; 2 mg (regimen A)): −9±5.3 bpm
decrease in HR vs. baseline (12-lead ECG) ([1]; 2 mg second dose): −9±5.2 bpm
mean maximum change from baseline in HR (12-lead ECG) ([1]; 10 mg (regimen B)): −13±6.2 bpm
decrease in HR vs. baseline (12-lead ECG) ([1]; 10 mg second dose): −10±5.1 bpm
pre-dose HR values (range) ([1]; Day 4 to last day of administration, ponesimod-treated subjects): 56-60 bpm
Atrial rhythm, number of events [1, 4]: 19
Atrial rhythm, number of subjects [1, 4]: 4
Atrial rhythm, percentage of subjects [1, 4]: 16.7 percentage
Sinus bradycardia, number of events [1, 4]: 3
Sinus bradycardia, number of subjects [1, 4]: 3
Sinus bradycardia, percentage of subjects [1, 4]: 12.5 percentage
Supraventricular extrasystoles, number of events [1, 4]: 15
Supraventricular extrasystoles, number of subjects [1, 4]: 3
Supraventricular extrasystoles, percentage of subjects [1, 4]: 12.5 percentage
Ventricular extrasystoles, number of events [1, 4]: 1
Ventricular extrasystoles, number of subjects [1, 4]: 1
Ventricular extrasystoles, percentage of subjects [1, 4]: 4.2 percentage
AV-block 1st degree, number of events [1, 5]: 130
AV-block 1st degree, number of subjects [1, 5]: 6
AV-block 1st degree, percentage of subjects [1, 5]: 25.0 percentage
AV-block 2nd degree Mobitz I, number of events [1, 5]: 1
AV-block 2nd degree Mobitz I, number of subjects [1, 5]: 1
AV-block 2nd degree Mobitz I, percentage of subjects [1, 5]: 4.2 percentage
Atrial fibrillation, number of subjects [1, 5]: 1
Atrial fibrillation, percentage of subjects [1, 5]: 4.2 percentage
Atrial rhythm, number of events [1, 5]: 12
Atrial rhythm, number of subjects [1, 5]: 2
Atrial rhythm, percentage of subjects [1, 5]: 8.3 percentage
QT prolonged, number of events [1, 5]: 142
QT prolonged, number of subjects [1, 5]: 6
QT prolonged, percentage of subjects [1, 5]: 25.0 percentage
Short PQ, number of events [1, 5]: 147
Short PQ, number of subjects [1, 5]: 6
Short PQ, percentage of subjects [1, 5]: 25.0 percentage
Sinus arrhythmia, number of events [1, 5]: 98
Sinus arrhythmia, number of subjects [1, 5]: 12
Sinus arrhythmia, percentage of subjects [1, 5]: 50.0 percentage
Sinus bradycardia, number of events [1, 5]: 33
Sinus bradycardia, number of subjects [1, 5]: 3
Sinus bradycardia, percentage of subjects [1, 5]: 12.5 percentage
Supraventricular extrasystoles, number of events [1, 5]: 29
Supraventricular extrasystoles, number of subjects [1, 5]: 7
Supraventricular extrasystoles, percentage of subjects [1, 5]: 29.2 percentage
Ventricular extrasystoles, number of events [1, 5]: 3
Ventricular extrasystoles, number of subjects [1, 5]: 3
Ventricular extrasystoles, percentage of subjects [1, 5]: 12.5 percentage
Atrial fibrillation, number of events ([1]; Regimen B (N = 24), Day 2 to EOFP or EOS visit, *Serious adverse event): 1
time for HR to return to baseline values post-dose (12-lead ECG) ([1]; regimen A): ≤ 3 h
occurrence of HR <45 bpm, events ([1]; regimen A): 20 events
occurrence of HR <45 bpm, subjects ([1]; regimen A): 3 subjects
occurrence of PR interval >210 ms, events ([1]; regimen A): 79 events
occurrence of PR interval >210 ms, subjects ([1]; regimen A): 6 subjects
occurrence of HR <45 bpm, HR decrease >20 bpm, PR interval ≥200 ms or PR increase >20 ms, events ([1]; regimen A): 14 events
occurrence of HR <45 bpm, HR decrease >20 bpm, PR interval ≥200 ms or PR increase >20 ms, subjects ([1]; regimen A): 6 subjects
percentage of subjects with at least one event (HR <45 bpm, HR decrease >20 bpm, PR ≥200 ms, PR increase >20 ms) ([1]; regimen A): 25%
time for HR to return to baseline values post-dose (12-lead ECG) ([1]; regimen B): ≤ 4 h
occurrence of HR <45 bpm, events ([1]; regimen B): 58 events
occurrence of HR <45 bpm, subjects ([1]; regimen B): 4 subjects
occurrence of PR interval >210 ms, events ([1]; regimen B): 143 events
occurrence of PR interval >210 ms, subjects ([1]; regimen B): 8 subjects
occurrence of HR <45 bpm, HR decrease >20 bpm, PR interval ≥200 ms or PR increase >20 ms, events ([1]; regimen B): 43 events
occurrence of HR <45 bpm, HR decrease >20 bpm, PR interval ≥200 ms or PR increase >20 ms, subjects ([1]; regimen B): 12 subjects
percentage of subjects with at least one event (HR <45 bpm, HR decrease >20 bpm, PR ≥200 ms, PR increase >20 ms) ([1]; regimen B): 50%
time of serious AE of atrial fibrillation after administration ([2]; 20 mg ponesimod (regimen B)): 6 h
time to resolution of serious AE of atrial fibrillation without sequelae ([2]; 20 mg ponesimod (regimen B)): ≤ 24 h
serious AE ([2]; after 20 mg ponesimod (regimen B)): One serious AE of atrial fibrillation
intensity of AEs ([2]; all treatment groups): mild to moderate
most commonly reported AEs ([2]; on ponesimod, also among the most common in the placebo group): headache, dizziness, and procedural site reaction
AEs of special interest related to cardiac function (sinus bradycardia and palpitations) ([2]; regimen B vs regimen A): reported more frequently during regimen B compared to regimen A
effect on PFT variables and hematology variables [3]: No treatment effect
